27 compounds from patent US9067898B1, “Isothiazole derivatives as GPR120 agonists for the treatment of type II diabetes” (Janssen Pharmaceutica NV, priority 2014, dated 2015) can be followed below.

For one assay, the target named is T1, Human GPR120 short form (Homo sapiens, UniProt Q5NUL3).
T1 construct: expressed in transfected cells
T1 sequence (Q5NUL3 1-361): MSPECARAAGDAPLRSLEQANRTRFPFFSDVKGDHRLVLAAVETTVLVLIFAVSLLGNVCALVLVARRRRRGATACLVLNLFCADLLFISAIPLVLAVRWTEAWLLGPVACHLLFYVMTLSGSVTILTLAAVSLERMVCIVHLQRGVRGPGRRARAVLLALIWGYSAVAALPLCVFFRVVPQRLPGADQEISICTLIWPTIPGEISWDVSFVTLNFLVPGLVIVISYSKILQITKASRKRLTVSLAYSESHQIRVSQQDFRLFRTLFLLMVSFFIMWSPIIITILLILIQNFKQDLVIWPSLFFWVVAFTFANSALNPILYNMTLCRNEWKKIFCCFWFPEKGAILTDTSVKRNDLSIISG
Put plainly: Human GPR120 calcium flux assay (FLIPR), Procedure Calcium A. The format is cell-based. The settings on record: HEK-293 cells expressing human GPR120 short form, 2500 cells/well; read-out: GPR120 Ca2+ Assay A EC50. Put shortly:
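HEK293 cells stably expressing the short isoform (NM_001195755.1), 2500/well, starved 1 h, then loaded with Fluo-4 NW plus probenecid (30 min 37 °C, 15 min RT). Compound solutions 0.012–100 μM, 0.2% DMSO final; FLIPR read 300 s after addition. EC50 from Fmax−Fmin fitted to variable-slope sigmoid (Hill <2).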

In assay [1] the target is T2, long form of human GPR120 (Homo sapiens, UniProt Q5NUL3).
T2 construct: host or cells: PathHunter CHO-K1 GPR120 β-Arrestin Cell Line
T2 sequence (Q5NUL3 1-377 isoform Q5NUL3-1): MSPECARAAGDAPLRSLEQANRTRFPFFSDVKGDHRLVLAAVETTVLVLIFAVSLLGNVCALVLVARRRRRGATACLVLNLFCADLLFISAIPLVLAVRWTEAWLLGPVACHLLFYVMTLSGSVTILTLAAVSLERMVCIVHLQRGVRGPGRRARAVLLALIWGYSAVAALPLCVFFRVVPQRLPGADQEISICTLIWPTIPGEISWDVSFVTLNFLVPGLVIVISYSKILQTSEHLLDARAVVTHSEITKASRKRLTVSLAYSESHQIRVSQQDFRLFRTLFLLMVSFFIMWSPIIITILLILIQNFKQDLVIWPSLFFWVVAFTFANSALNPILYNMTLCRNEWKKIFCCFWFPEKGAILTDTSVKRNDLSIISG
T2 sequence (P32121 whole entry partner): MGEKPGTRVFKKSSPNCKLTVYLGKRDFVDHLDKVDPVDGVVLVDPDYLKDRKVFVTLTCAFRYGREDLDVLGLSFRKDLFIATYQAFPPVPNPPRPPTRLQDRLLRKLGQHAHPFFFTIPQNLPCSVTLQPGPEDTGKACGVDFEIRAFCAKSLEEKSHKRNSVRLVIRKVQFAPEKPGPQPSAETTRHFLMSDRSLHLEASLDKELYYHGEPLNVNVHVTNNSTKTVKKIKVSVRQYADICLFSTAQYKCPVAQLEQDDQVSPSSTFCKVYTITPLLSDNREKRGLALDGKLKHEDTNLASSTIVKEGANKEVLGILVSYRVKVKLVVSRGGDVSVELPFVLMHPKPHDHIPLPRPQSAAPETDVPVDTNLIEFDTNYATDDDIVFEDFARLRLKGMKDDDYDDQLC
Put plainly: Human GPR120 DiscoveRx PathHunter Beta-Arrestin assay, Procedure β-arrestin A. In kind it is cell-based. As to conditions: PathHunter CHO-K1 GPR120 β-Arrestin cell line, 3000 cells per well, read-out: hGPR120 β-arrestin A EC50. Put shortly: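 PathHunter CHO-K1 β-arrestin cells expressed long-form GPR120 (Procedure A, 3000 cells/well) or short-form GPR120 (Procedure B, 5000 cells/well). Compounds were serially diluted from 25 µM and incubated 90 min at 37 °C in HBSS/20 mM HEPES/0.1% BSA, pH 7.4. Luminescence was read after 60 min detection at RT; EC50 comes from % activity versus positive control, Hill slope fixed at 1.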

Take `CCc1ccc(-c2snc(Cl)c2COc2ccc(CCCO)c(F)c2F)cc1` [Cpd 83, 3-(4-((3-chloro-5-(4-ethylphenyl)isothiazol-4-yl)methoxy)-2,3-difluorophenyl)propan-1-ol]: the EC50 (usually the concentration needed to bring the measured effect to its halfway point) on Human GPR120 short form was found to be 56 nM; in assay [1], 54 nM.
The corresponding values for `Cc1ccc(-c2snc(C)c2COc2c(F)cc(CCC(=O)O)cc2F)c(F)c1` [Cpd 84, 3-(3,5-difluoro-4-[[5-(2-fluoro-4-methylphenyl)-3-methyl-1,2-thiazol-4-yl]methoxy]phenyl) propanoic acid] are 56 nM and 119 nM.
The matching figures for `COc1ccc(-c2nsc(C(F)(F)F)c2COc2ccc(CCC(=O)O)c(C)c2C)cc1` [Cpd 86, 3-(4-[[3-(4-methoxyphenyl)-5-(trifluoromethyl)-1,2-thiazol-4-yl]methoxy]-2,3-dimethylphenyl) propanoic acid]: 57 nM and 85 nM.
The matching figures for `O=C(O)CCc1cc(F)c(OCc2c(-c3ccc4c(c3)OCO4)nsc2C(F)(F)F)c(F)c1` [Cpd 87, 3-(4-[[3-(2H-1,3-benzodioxol-5-yl)-5-(trifluoromethyl)-1,2-thiazol-4-yl]methoxy]-3,5-difluorophenyl)propanoic acid]: 62 nM and 88 nM.
Take `Cc1c(CCC(=O)O)ccc(OCc2c(Cl)nsc2-c2ccc(Cl)cc2)c1C` [Cpd 88, 3-(4-[[3-chloro-5-(4-chlorophenyl)-1,2-thiazol-4-yl]methoxy]-2,3-dimethylphenyl)propanoic acid]: the EC50 stood at 67 nM on Human GPR120 short form and 81 nM in assay [1].
The matching figures for `O=C(O)CCc1cc(F)c(OCc2c(-c3c(F)cc(Cl)cc3F)nsc2C(F)(F)F)c(F)c1` [Cpd 96, 3-(4-((3-(4-chloro-2,6-difluorophenyl)-5-(trifluoromethyl)isothiazol-4-yl)methoxy)-3,5-difluorophenyl)propanoic acid]: 73 nM and 287 nM.
The corresponding values for `COc1ccc(-c2snc(Cl)c2COc2c(F)cc(CCC(=O)O)cc2F)cc1` [Cpd 97, 3-(4-[[3-chloro-5-(4-methoxyphenyl)-1,2-thiazol-4-yl]methoxy]-3,5-difluorophenyl)propanoic acid] are 73 nM and 338 nM.
The corresponding values for `COc1ccc(-c2nsc(C(F)(F)F)c2COc2c(F)cc(CCC(=O)O)cc2F)cn1` [Cpd 98, 3-(3,5-difluoro-4-((3-(6-methoxypyridin-3-yl)-5-(trifluoromethyl)isothiazol-4-yl)methoxy)phenyl) propanoic acid] are 74 nM and 185 nM.
For `COc1ccc(-c2nsc(C(F)(F)F)c2COc2c(F)cc(CCC(=O)O)cc2F)cc1` [Cpd 99, 3-(3,5-difluoro-4-[[3-(4-methoxyphenyl)-5-(trifluoromethyl)-1,2-thiazol-4-yl]methoxy]phenyl)propanoic acid], the EC50 came out at 75 nM at Human GPR120 short form and 91 nM in assay [1].
The matching figures for `Cc1c(CCC(=O)O)ccc(OCc2c(Cl)nsc2-c2ccccc2)c1C` [Cpd 101, 3-[4-[(3-chloro-5-phenyl-1,2-thiazol-4-yl)methoxy]-2,3-dimethylphenyl]propanoic acid]: 76 nM and 189 nM.
The corresponding values for `Cc1c(CCC(=O)O)ccc(OCc2c(Cl)nsc2-c2ccccc2Cl)c1C` [Cpd 104, 3-(4-[[3-chloro-5-(2-chlorophenyl)-1,2-thiazol-4-yl]methoxy]-2,3-dimethylphenyl)propanoic acid] are 83 nM and 399 nM.
As for `CCc1ccc(-c2nsc(C(F)(F)F)c2COc2ccc(CC(C)C(=O)O)cc2F)cc1` (stereo not drawn) [Cpd 105, 3-(4-((3-(4-ethylphenyl)-5-(trifluoromethyl)isothiazol-4-yl)methoxy)-3-fluorophenyl)-2-methylpropanoic acid], the EC50 at Human GPR120 short form came to 86 nM; in assay [1], 217 nM.
The corresponding values for `O=C(O)CCc1ccc(OCc2c(-c3ccc(Cl)cc3)nsc2C(F)(F)F)c(F)c1F` [Cpd 106, 3-(4-[[3-(4-chlorophenyl)-5-(trifluoromethyl)-1,2-thiazol-4-yl]methoxy]-2,3-difluorophenyl)propanoic acid] are 86 nM and 98 nM.
The corresponding values for `CCc1ccc(-c2snc(Cl)c2COc2c(F)cc(CCC(=O)O)c(F)c2F)cc1` [Cpd 111, 3-(4-((3-chloro-5-(4-ethylphenyl)isothiazol-4-yl)methoxy)-2,3,5-trifluorophenyl)propanoic acid] are 98 nM and 244 nM.
The corresponding values for `Cc1c(CCC(=O)O)cc(F)c(OCc2c(-c3ccc(Cl)cc3)nsc2C(F)(F)F)c1F` [Cpd 113, 3-(4-((3-(4-chlorophenyl)-5-(trifluoromethyl)isothiazol-4-yl)methoxy)-3,5-difluoro-2-methylphenyl)propanoic acid] are 99 nM and 71 nM.
As to `O=C(O)CCc1cc(F)c(OCc2c(Cl)nsc2-c2ccc(Cl)cc2F)c(F)c1` [Cpd 114, 3-(4-((3-chloro-5-(4-chloro-2-fluorophenyl)isothiazol-4-yl)methoxy)-3,5-difluorophenyl)propanoic acid], the half-maximal effective concentration (EC50) on Human GPR120 short form worked out at 100 nM; in assay [1], 295 nM.
The corresponding values for `Cc1ccc(-c2nsc(C(F)(F)F)c2COc2c(F)cc(CCC(=O)O)cc2F)cc1` [Cpd 115, 3-(3,5-difluoro-4-[[3-(4-methylphenyl)-5-(trifluoromethyl)-1,2-thiazol-4-yl]methoxy]phenyl) propanoic acid] are 104 nM and 70 nM.
Take `CCc1ccc(-c2nsc(C(F)(F)F)c2COc2c(F)cc(CCC(=O)O)c(F)c2F)cc1` [Cpd 117, 3-(4-((3-(4-ethylphenyl)-5-(trifluoromethyl)isothiazol-4-yl)methoxy)-2,3,5-trifluorophenyl)propanoic acid]: the values for the EC50 (at Human GPR120 short form; in assay [1]) were 104 nM and 254 nM, respectively.
Consider `CCc1ccc(-c2nsc(C(F)(F)F)c2COc2c(F)c(F)c(CCC(=O)O)c(F)c2F)cc1` [Cpd 118, 3-(4-((3-(4-ethylphenyl)-5-(trifluoromethyl)isothiazol-4-yl)methoxy)-2,3,5,6-tetrafluorophenyl)propanoic acid], for which the EC50 on Human GPR120 short form was 105 nM; in assay [1], 257 nM.
The corresponding values for `Cc1snc(-c2ccc(Cl)cc2)c1COc1ccc(CCC(=O)O)c(F)c1F` [Cpd 119, 3-(4-((3-(4-chlorophenyl)-5-methylisothiazol-4-yl)methoxy)-2,3-difluorophenyl)propanoic acid] are 106 nM and 128 nM.
The matching figures for `Cc1c(CCC(=O)O)ccc(OCc2c(Cl)nsc2-c2ccc(Cl)cc2F)c1C` [Cpd 122]: 109 nM and 1290 nM.
The corresponding values for `COc1nsc(-c2ccc(C)cc2F)c1COc1c(F)cc(CCC(=O)O)cc1F` [Cpd 123, 3-(3,5-difluoro-4-[[5-(2-fluoro-4-methylphenyl)-3-methoxy-1,2-thiazol-4-yl]methoxy]phenyl) propanoic acid] are 111 nM and 303 nM.
Turning to `CCc1ccc(-c2nsc(C(F)(F)F)c2COc2ccc(CCC(=O)O)c(C)c2C)cc1` [Cpd 127, 3-(4-((3-(4-ethylphenyl)-5-(trifluoromethyl)isothiazol-4-yl)methoxy)-2,3-dimethylphenyl)propanoic acid], the EC50 came to 122 nM at Human GPR120 short form and 178 nM in assay [1].
The matching figures for `OCCCc1ccc(OCc2c(-c3ccc(Cl)cc3)nsc2C(F)(F)F)c(F)c1F` [Cpd 132, 3-(4-((3-(4-chlorophenyl)-5-(trifluoromethyl)isothiazol-4-yl)methoxy)-2,3-difluorophenyl)propan-1-ol]: 130 nM and 122 nM.
The corresponding values for `Cc1c(CCC(=O)O)ccc(OCc2c(-c3c(F)cc(Cl)cc3F)nsc2C(F)(F)F)c1C` [Cpd 133, 3-(4-((3-(4-chloro-2,6-difluorophenyl)-5-(trifluoromethyl)isothiazol-4-yl)methoxy)-2,3-dimethylphenyl)propanoic acid] are 131 nM and 539 nM.
The matching figures for `CCc1ccc(-c2nsc(C(F)(F)F)c2COc2c(F)cc(CCCO)cc2F)cc1` [Cpd 135, 3-(4-((3-(4-ethylphenyl)-5-(trifluoromethyl)isothiazol-4-yl)methoxy)-3,5-difluorophenyl)propan-1-61]: 134 nM and 58 nM.
Turning to `CCc1ccc(-c2nsc(C(F)(F)F)c2COc2ccc(CCCO)c(F)c2F)cc1` [Cpd 139, 3-(4-((3-(4-ethylphenyl)-5-(trifluoromethyl)isothiazol-4-yl)methoxy)-2,3-difluorophenyl)propan-1-ol], the EC50 at Human GPR120 short form came to 138 nM; in assay [1], 77 nM.
